Each structure is given as a SMILES string.

Results on one compound are retold here after article PMC11175440, “Exploring hydrophilic 2,2-di(indol-3-yl)ethanamine derivatives against Leishmania infantum” (PLOS ONE, 2024).

The nature of data set [1]: Well-being, body weight and organ weight of infected and treated BALB/c mice. In kind it is in vivo. To be noted: miltefosine 10 mg/kg/day per os. On the procedure:
(§1) The compound URB1483 was selected for the in vivo evaluation on a BALB/c mice infection model. Six- to seven-week-old BALB/c mice were purchased from Charles River Laboratories (Barcelona, Spain) or the I3S (Porto, Portugal) animal facility. Luciferase-expressing L. infantum (MHOM/MA/67/ITMAP-263) axenic amastigotes were cultured in complete cell-free medium MAA/20 [20] at 37°C with 5% CO2. Five-day-old cultures of amastigotes were washed twice with PBS and resuspended at a concentration of 1×10^9 parasites/Ml. A total of 17 mice were infected with 100 μL of parasite suspension containing 1×10^8 parasites. The injection was performed intra-venously (IV) in the tails of mice, and treatments started 21 days post-infection for 10 consecutive days. Formulation studies are reported in the Supporting Information (S1 Table in S1 File). […]
(§2) Mice well-being-assessment was checked every two days, in terms of weight control and the presence of stress signs. […] Spleen and liver were weighted, and bone marrow cells were counted with automatic cell counter EVE^TM (NanoEnTek, Seul, Korea). […] For bone marrow, the number of parasites was calculated per 10^5 cells using the formula: [(geometric mean of reciprocal titer from each triplicate/number of cells) × reciprocal fraction of the cells inoculated into the first well]. […]

Data set [2] concerns L. infantum MHOM/TN/80/IPT1 promastigotes. The data set is described as follows: L. infantum promastigotes viability assay. In kind it is cell-based. To be noted: Leishmania infantum, 72 h. The procedure: The reference strain L. infantum MHOM/TN/80/IPT1 (WHO international reference strain) was purchased from ATCC (ATCC® 50134™) and cultured in Evans’s Modified Tobie Medium (EMTM) at 26–28°C. During the treatment with bisindole derivative compounds, the parasites were maintained in RPMI-PY medium as described previously
The activity of bisindole derivatives was first evaluated on late log/stationary phase L. infantum promastigotes resuspended in 96-well plates (100 μL/well) in complete RPMI-PY medium with a density of 2.5×10^6 parasites/mL. The anti-parasitic activity was initially investigated with the single dose of 20 μM of each compound for 72 h at 26°C. […] As positive control, the anti-leishmanial drug miltefosine (Sigma-Aldrich, Milan, Italy) was included. Each condition was carried out in duplicate. The promastigotes viability was evaluated using the CellTiter 96H aqueous non-radioactive cell proliferation assay (Promega, Madison, Wisconsin, USA), as previously reported. The efficacy of selected compounds was evaluated by determining the IC50 values using the non-linear regression curves in GraphPad Prism 8.0 (GraphPad Software, Inc., San Diego, CA, USA). The equation used for data fitting was Y = 100/(1+10^((LogIC50-X)*HillSlope)) (hillslope not constrained), where X is equal to the log of concentration and Y is the normalized response.

The subject of data set [3] is THP-1 cells. The data set is described as follows: Cytotoxicity assay on PMA-differentiated THP-1 macrophage-like cells. Format: cell-based, human. To be noted: CC50 in THP-1 / IC50 against L. infantum promastigotes. The procedure:
(§3) The human monocytic cell line THP-1 (ECACC 88081201) was cultured in RPMI-1640 medium supplemented with 10% heat-inactivated fetal bovine serum (FBS), 2 mM L-glutamine, 10 g/L non-essential amino acid, 1 mM sodium pyruvate, 100 μg/mL streptomycin, […]. Cells were maintained in a humidified incubator at 37°C and 5% CO2. All cell culture reagents were purchased from Sigma-Aldrich (St. Louis, MO, USA).
(§4) The cytotoxicity of bisindole derivative compounds was evaluated on THP-1 cells. Briefly, cells were resuspended at a density of 5×10^6 cells/mL, 100 μL/well were seeded in a 96-well plate and treated for 48 h with 20 ng/mL phorbol myristic acid (PMA) to induce differentiation into macrophages-like cells. After cell adhesion, selected compounds were used at 4, 20, and 100 μM, for 72 h at 37°C. […] Compounds with cytotoxicity higher than 20 μM were further tested to determine CC50 with scalar dilutions 1:2 or 2:3 (from 100 to 3.12 μM).
(§5) The negative control (not-treated cells) and the anti-leishmanial drug miltefosine were included in each experiment. Each condition was carried out in duplicate. To evaluate the cytotoxicity of the selected compounds, the CellTiter 96H Aqueous Non-Radioactive Cell Proliferation Assay (Promega) was performed as described above. For each compound, the SI was calculated as the ratio between cytotoxicity in THP-1 and activity against L. infantum promastigotes.

Test in data set [4]: as above
Format: cell-based, human. Conditions: human, PMA-differentiated THP-1 macrophage-like cells; 72 h, scalar dilutions from 100 to 3.12 μM; mean and 95% CI. On the procedure: as §3, §4, §5

Data set [5] relates to L. infantum (MHOM/MA/67/ITMAP-263) axenic amastigotes. The data set is described as follows: In vivo anti-amastigote activity in BALB/c mice infection model (limiting dilution parasite burden). To be noted: all the organs (spleen, liver, bone marrow); miltefosine 10 mg/kg/day per os, 10 days. On the procedure:
as §1, §2

For data set [6], the system named is L. infantum intracellular amastigotes. Nature of the data set: Anti-amastigote assay on infected THP-1 cells. In kind it is cell-based. Conditions: Leishmania infantum; THP-1 cells infected 24 h, 72 h treatment, 20 to 0.31 μM; read-out: IC50 against L. infantum intracellular amastigotes. The procedure: THP-1 cells were plated in a 96-well plate and differentiated as described above. […] Briefly, Leishmania cells were washed twice with PBS to remove any trace of serum and resuspended 1×10^7/mL PBS. […] Labeled parasites were washed three times with complete RPMI medium and used for the infection. […] To analyze the infection, cells were washed, formaldehyde/methanol fixed, stained with Hoechst dye, and observed with a fluorescence microscope. Images were acquired (at 5× magnification) at 494 nm excitation/521 nm emission (green) and 350 nm excitation/460 emission (blue) for CFSE and Hoechst staining, respectively. Automated cell counting of single-color images was performed with ImageJ software to monitor the infection: the promastigotes count on each green image was normalized with the cell count on the corresponding blue image. […] To calculate IC50, the percentage values of Leishmania cell count normalized to THP-1 cells were plotted against the log10 concentration (μM) of each compound.

With `CCCCCCCCCCCCCCCCOP(=O)([O-])OCC[N+](C)(C)C` [miltefosine, reference compound], the spleen weight entry in data set [1] (after 10 days of treatment, versus non-treated infected group) was “significantly lower to the non-treated group”. The compound further came in with a weight decrease in data set [1] (infected BALB/c mice, from the second treatment) of 10%. The IC50 (in general, the concentration at which inhibition is half-maximal) in data set [2] (scalar dilutions from 20 to 0.31 μM, mean and 95% CI) came out at 3.6 µM; in data set [6], 1.8 µM. Moreover, at 20 µM the inhibition in data set [2] (single dose 20 μM, 26°C) was 96.7%. Moreover, the “SI (CC50/IC50)” value in data set [3] is 10.2. Besides, the CC50 (usually the concentration giving 50% cytotoxicity) at 72 h in data set [4] is 36.7 µM. Also, in data set [5], the “reduction of parasite burden” value was “more than 99.9%”.
